Measured values published in paper PMC6201195, “The Xylulose 5-Phosphate/Phosphate Translocator Supports Triose Phosphate, but Not Phosphoenolpyruvate Transport Across the Inner Envelope Membrane of Plastids in Arabidopsis thaliana Mutant Plants” (Frontiers in Plant Science, 2018).

Key:
[1] = target: T1, XPT (xylulose 5-phosphate/phosphate translocator) (Arabidopsis thaliana, UniProt Q9LF61); assay: inhibition of homologous […]/[…] exchange in proteoliposomes with reconstituted yeast membranes; format: biochemical; details: external pH 7.0; 0.14 mM 32Pi; hyperbolic fit; alternative transport substrate
T1 construct: full-length XPT cDNA, His-tag (pYES-DEST52), expressed in Saccharomyces cerevisiae InvSC; yeast membranes reconstituted into proteoliposomes, tag kept
T1 sequence (Q9LF61 1-417 limits assumed): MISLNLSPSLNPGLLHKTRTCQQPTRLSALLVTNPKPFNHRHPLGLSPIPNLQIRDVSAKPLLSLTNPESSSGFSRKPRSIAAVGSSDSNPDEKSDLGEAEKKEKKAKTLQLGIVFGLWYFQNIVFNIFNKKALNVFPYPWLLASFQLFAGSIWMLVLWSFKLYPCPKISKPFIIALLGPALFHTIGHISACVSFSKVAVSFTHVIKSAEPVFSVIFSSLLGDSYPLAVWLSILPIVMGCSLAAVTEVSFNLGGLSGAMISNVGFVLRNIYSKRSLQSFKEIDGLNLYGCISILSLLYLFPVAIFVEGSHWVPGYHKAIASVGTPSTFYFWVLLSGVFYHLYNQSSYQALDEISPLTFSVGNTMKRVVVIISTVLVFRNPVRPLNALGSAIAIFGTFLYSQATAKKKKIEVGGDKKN

[2] = substrate: O=P(O)(O)O; assay: cells, lysate or membranes; details: external pH 7.0, internal pH 7.8; counter-exchange; labelled compound

Molecule	Ki(app) [1] [mM]	Km [2] [mM]
C=C(OP(=O)(O)O)C(=O)O [PEP]	3.76 ± 0.39	–
XPT (xylulose 5-phosphate/phosphate translocator) (Arabidopsis thaliana) (protein) MISLNLSPSLNPGLLHKTRTCQQPTRLSALLVTNPKPFNHRHPLGLSPIPNLQIRDVSAKPLLSLTNPESSSGFSRKPRSIAAVGSSDSNPDEKSDLGEAEKKEKKAKTLQLGIVFGLWYFQNIVFNIFNKKALNVFPYPWLLASFQLFAGSIWMLVLWSFKLYPCPKISKPFIIALLGPALFHTIGHISACVSFSKVAVSFTHVIKSAEPVFSVIFSSLLGDSYPLAVWLSILPIVMGCSLAAVTEVSFNLGGLSGAMISNVGFVLRNIYSKRSLQSFKEIDGLNLYGCISILSLLYLFPVAIFVEGSHWVPGYHKAIASVGTPSTFYFWVLLSGVFYHLYNQSSYQALDEISPLTFSVGNTMKRVVVIISTVLVFRNPVRPLNALGSAIAIFGTFLYSQATAKKKKIEVGGDKKN	–	0.40 ± 0.07
